Measured values published in ChEMBL document CHEMBL2010668 (Bioorg Med Chem Lett, 2012).

What was measured:
[1] = target: T1, Tyrosinase (Agaricus bisporus, UniProt O42713); experiment: Inhibition of mushroom tyrosinase
T1 sequence (O42713 whole entry): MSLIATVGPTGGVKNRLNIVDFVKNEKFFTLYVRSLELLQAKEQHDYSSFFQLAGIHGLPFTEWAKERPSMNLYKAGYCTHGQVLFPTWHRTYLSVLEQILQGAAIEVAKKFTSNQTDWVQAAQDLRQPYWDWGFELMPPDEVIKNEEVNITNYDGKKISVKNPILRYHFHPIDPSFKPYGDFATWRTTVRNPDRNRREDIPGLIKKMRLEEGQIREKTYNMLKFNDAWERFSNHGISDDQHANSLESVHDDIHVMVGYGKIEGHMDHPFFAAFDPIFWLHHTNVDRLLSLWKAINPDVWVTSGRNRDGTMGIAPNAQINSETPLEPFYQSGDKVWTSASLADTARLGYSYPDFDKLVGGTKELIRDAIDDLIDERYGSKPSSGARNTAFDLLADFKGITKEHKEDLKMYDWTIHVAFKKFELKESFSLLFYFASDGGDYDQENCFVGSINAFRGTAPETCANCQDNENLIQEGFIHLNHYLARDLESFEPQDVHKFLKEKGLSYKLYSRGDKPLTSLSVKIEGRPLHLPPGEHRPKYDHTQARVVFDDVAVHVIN

[2] = Cytotoxicity against mouse Melan-a cells assessed as cell survival at 80 uM; assay type: cell-based; details: read-out: Survival
[3] = Cytotoxicity against mouse Melan-a cells at 46.64 uM; assay type: cell-based
[4] = cells; details: Mus musculus, Melan-a
Description: Depigmenting activity in mouse Melan-a cells assessed as melanin production

[5] = Cytotoxicity against mouse Melan-a cells assessed as cell survival at 100 uM; assay type: cell-based; details: read-out: Survival
[6] = Cytotoxicity against mouse Melan-a cells assessed as cell survival at 50 uM; assay type: cell-based; details: read-out: Survival

Row | Structure (SMILES) | IC50 [1] | viability at 80 µM [2] | Activity [3] | IC50 [4] | viability at 100 µM [5] | viability at 50 µM [6]
1 | O=C(/C=C/c1ccc2c(c1)OCO2)Oc1coc(CO)cc1=O | > 200 µM | 98.9% | Non-toxic | 46.6 µM |  | 
2 | O=C(/C=C/c1ccc2c(c1)OCO2)OCc1cc(=O)c(O)co1 | 1.53 µM |  |  | > 100 µM | 97.1% | 
3 | O=C(/C=C/c1ccc2c(c1)OCO2)OC(=O)/C=C/c1ccc2c(c1)OCO2 | > 100 µM |  |  | > 100 µM | 97.1% | 
4 | O=C(/C=C/c1ccc2c(c1)OCO2)OCc1cc(=O)c(OCc2cc(=O)c(O)co2)co1 | > 100 µM |  |  | 23.5 µM |  | 95.9%
